Data reported in patent US20180042983A1, “THERAPEUTIC COMPOSITIONS INCLUDING MITOCHONDRIAL FISSION INHIBITOR PEPTIDES, VARIANTS THEREOF, AND METHODS OF USING THE SAME” (STEALTH PEPTIDES INTERNATIONAL, INC., priority 2015, published 2018).

How the values were obtained:
[1] = system: several mammalian cell types; conditions: cited from earlier work
neonatal cardiomyocytes = test: Ang II-induced mitochondrial ROS in neonatal cardiomyocytes (Mitosox flow cytometry); assay type: cell-based, mouse; conditions: after Ang II (1 μM, 3 hours)
Experimental: Ventricles from mouse neonates younger than 72 hours will be dissected, minced, and enzymatically digested with Blendzyme 4 (45 mg/mL, Roche). After enzymatic digestion, cardiomyocytes will be enriched using differential pre-plating for 2 hours, and seeded on fibronectin-coated culture dishes for 24 hours in DMEM (Gibco) with 20% Fetal Bovine Serum (Sigma) and 25 μM Arabinosylcytosine (Sigma). Cardiomyocytes will be stimulated with Angiotensin II (1 μM) for 3 hours in serum-free DMEM containing 0.5% insulin transferrin-selenium (Sigma), 2 mM glutamine, and 1 mg/mL BSA. […] To measure mitochondrial superoxide concentration, Mitosox ([…]) will be incubated for 30 minutes at 37° C. to load cardiomyocytes, followed by 2 washes with Hanks Balanced Salt Solution. Samples will be analyzed using excitation/emission of 488/625 nm by flow cytometry. Flow data will be analyzed using FCS Express (De Novo Software, Los Angeles, Calif., U.S.A.), and presented as histogram distributions of Mitosox fluorescence intensity.

Molecule | penetration of the plasma membrane [1] | mitochondrial ROS (Mitosox fluorescence) (neonatal cardiomyocytes)
2′,6′-Dmt-D-Arg-Phe-Lys-NH2 | readily penetrates the plasma membrane of several mammalian cell types in an energy-independent manner | 
CC(=O)N[C@@H](CS)C(=O)O [N-acetyl cysteine] |  | not show any effect
